Test [1] concerns Cyanidiosyzon merolae. In words: Amount of starch in unicellular red algae after cultivation. The test is classed as cell-based. Conditions: 2 mmol/L dimethyl 2-oxoglutarate, MA2 culture medium, suspension culture under light, 24 hours after addition, compared with control without promoter; average of three independent tests, FIG. 5. As for the experimental part: Unicellular red algae were cultured in suspension under a light condition and a promoter was added thereto. An MA2 culture medium was used as a culture medium. Cyanidiosyzon merolae were used as unicellular red algae. Dimethyl 2-oxoglutarate was used as a promoter. The promoter was added so that the final concentration of dimethyl 2-oxoglutarate would be 2 mmol/L. After the addition of the promoter, the cultivation was continued for 24 hours more. Thereafter, a bright field image was obtained for the cultured unicellular red algae using a microscope. In addition, the fat and oil of the unicellular red algae were stained with commercially available BODIPY (registered trademark) from the Cosmo Bio, Inc. Then, a fluorescence observation image of the unicellular red algae with stained fat and oil was acquired by using a fluorescence microscope. The same cultivation as in test 1 was performed, and the amount of starch contained in the unicellular red algae after the cultivation was determined. FIG. 5 is a graph showing an example of the influence of addition of a promoter on the amount of accumulation of starch. […] In FIG. 5, “control” represents the results obtained for the unicellular red algae cultured without adding a promoter to the culture medium. […]

Test [2] deals with Cyanidiosyzon merolae. Nature of the test: Fat and oil accumulation in unicellular red algae (BODIPY staining, fluorescence microscopy). The test is classed as cell-based. Conditions: 2 mmol/L dimethyl 2-oxoglutarate, MA2 culture medium, suspension culture under light, 24 hours after addition, compared with culture without promoter; FIG. 2 vs FIG. 4. As for the experimental part: Unicellular red algae were cultured in suspension under a light condition and a promoter was added thereto. An MA2 culture medium was used as a culture medium. Cyanidiosyzon merolae were used as unicellular red algae. Dimethyl 2-oxoglutarate was used as a promoter. The promoter was added so that the final concentration of dimethyl 2-oxoglutarate would be 2 mmol/L. After the addition of the promoter, the cultivation was continued for 24 hours more. Thereafter, a bright field image was obtained for the cultured unicellular red algae using a microscope. In addition, the fat and oil of the unicellular red algae were stained with commercially available BODIPY (registered trademark) from the Cosmo Bio, Inc. Then, a fluorescence observation image of the unicellular red algae with stained fat and oil was acquired by using a fluorescence microscope. In addition, cultivation was similarly conducted as described above except that no promoter was added. Then, acquisition of a bright field image, staining of fat and oil, and acquisition of a fluorescence observation image were carried out also for the cultured unicellular red algae.

We go through 1 compound from patent publication US20240263128A1, “METHOD OF PRODUCING BIOLOGICAL MATERIAL” (NIPPON TELEGRAPH AND TELEPHONE CORPORATION, priority 2021, published 2024).

In the case of `COC(=O)CCC(=O)C(=O)OC` [promoter, dimethyl 2-oxoglutarate], in the test on Cyanidiosyzon merolae [1], the “amount of accumulation of starch” value is given as “greatly promoted”. The “accumulation of fat and oil (fluorescence caused by BODIPY staining)” value with Cyanidiosyzon merolae [2] is recorded as “greatly promoted”.
